{"source": "patent US11389415B2", "about": "“Methods of regulating cannabinoid receptor activity-related disorders and diseases” (The United States of America as represented by the …, priority 2012, dated 2022)", "key": {"HepG2 cells [1]": {"system": "HepG2 cells", "test": "[3H]-Thymidine incorporation assay in HepG2 cells", "format": "cell-based, human", "details": "for % Change in HepG2 cells ([3H]-thymidine incorporation): 1 μM; for effect of pretreatment on (R,R′)-Fen-stimulated mitogenesis: 1 h pretreatment then (R,R′)-Fen 24 h; for effect of pretreatment on anti-proliferative effect of (R,R′)-MNF: 1 h pretreatment then (R,R′)-MNF 24 h; for effect on cell proliferation: compound alone", "method": "(§1) Maintenance and Treatment of Cell Lines. Human HepG2 hepatocarcinoma cells and human U87MG glioma cells (ATCC, Manassas, Va.) were maintained in EMEM medium supplemented with 1% L-glutamine, 1% sodium pyruvate, 1% penicillin/streptomycin, and 10% FBS (Hyclone, Logan, Utah). The human 1321N1 astrocytoma cells (European Collection of Cell Cultures, Sigma-Aldrich) were cultured in Dulbecco's modified Eagle's medium supplemented with 10% FBS and penicillin/streptomycin. All cell lines were cultured at 37° C. in 5% CO2, and the medium was replaced every 2-3 days.\n(§2) Cells were seeded in 12-well plates at approximately 50,000 cells/well and incubated at 37° C. After 24 hours, the wells were rinsed with PBS and replaced with serum-free medium containing the appropriate concentration of the test compounds. After another 24-hour incubation at 37° C., 1 μCi of [^3H]-thymidine was added to each well and incubated at 37° C. for 16 hours. [^3H]-Thymidine incorporation into DNA was monitored after the cells were washed twice with PBS and then lysed in 600 μL of 0.1N NaOH for 30 minutes with shaking. The lysate was then mixed with 3 mL of liquid scintillation cocktail (Beckman Coulter, Inc., Brea, Calif.), and radioactivity was measured by liquid scintillation counting using Beckman Coulter LS6000IC Scintillation Counter. Data are shown as CPM incorporated compared to the control cells."}, "1321N1 cells": {"system": "1321N1 cells", "test": "Mitogenesis / [3H]-thymidine incorporation in 1321N1 cells", "format": "cell-based, human", "details": "for effect on proliferation / [3H]-thymidine incorporation: compound alone", "method": "as §1\nas §2, with “[^3H]-Thymidine Incorporation Assay. Cells” for “Cells”"}, "U87MG cells": {"system": "U87MG cells", "test": "[3H]-Thymidine incorporation in U87MG cells", "format": "cell-based, human", "method": "as §1, §2"}, "rat C6 glioma cells": {"system": "rat C6 glioma cells", "test": "3H-Thymidine incorporation in rat C6 glioma cells", "format": "cell-based", "details": "for effect of preincubation on antiproliferative effect of MNF: C6 cells, ICI-118,551 3 nM, AM251 0.5 and 1 μM, AM630 0.5 μM, 30 minutes, then 20 nM MNF", "method": "Cell culture. The rat-derived C6 glioma cell line was obtained from the American Type Culture Collection (Manassas, Va.). The cells were routinely maintained in DMEM supplemented with L-glutamine, 1% penicillin/streptomycin solution, and 10% FBS in a humidified CO2 incubator at 37° C.\n3H-Thymidine incorporation. C6 glioma cells were seeded in 12-well plates at ˜5×10^4 cells/well and incubated for 24 hours followed by a second 24-hour incubation with various concentrations of MNF. Radiolabeled thymidine (10 Ci/mmol; PerkinElmer Life and Analytical Sciences, Waltham, Mass.) was added at 1 μCi per well for 16 hours and its incorporation into DNA was then measured. Each treatment group was performed in triplicate and three independent studies were carried out."}, "GPR55": {"molecular_target": "GPR55 (Homo sapiens, UniProt Q9Y2T6)", "sequence (Q9Y2T6 whole entry)": "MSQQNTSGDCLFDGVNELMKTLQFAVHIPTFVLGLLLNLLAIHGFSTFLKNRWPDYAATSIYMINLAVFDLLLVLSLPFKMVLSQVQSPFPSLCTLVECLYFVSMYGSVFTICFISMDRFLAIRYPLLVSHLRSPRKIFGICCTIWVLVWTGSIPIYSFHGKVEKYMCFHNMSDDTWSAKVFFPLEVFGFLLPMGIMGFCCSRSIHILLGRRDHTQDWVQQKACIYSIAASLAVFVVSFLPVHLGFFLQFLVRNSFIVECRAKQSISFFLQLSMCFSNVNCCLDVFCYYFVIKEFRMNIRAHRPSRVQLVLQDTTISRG", "test": "Cellular uptake of TocriFluor T1117 in HepG2 cells", "format": "cell-based", "design": "host or cells: HepG2 hepatocarcinoma cells", "details": "for effect of pretreatment on T1117 incorporation: HepG2, AM630 1 μM, WIN 55,212-2 1 μM (1 hour), AM251 1 μM (30 minutes)"}, "HepG2 cells [2]": {"system": "HepG2 cells", "test": "cAMP accumulation in HepG2 cells", "format": "cell-based, human", "details": "β-agonists at 10 μM", "method": "cAMP Accumulation. HepG2 cells were seeded in 96-well plates and grown to confluency. […] The levels of cAMP accumulated in cells were determined and normalized to the amount of protein per well."}, "Akt and ERK1/2": {"system": "Akt and ERK1/2", "test": "phosphorylation of Akt and ERK1/2 in HepG2 cells (Western blot)", "format": "cell-based, human", "details": "1 μM, 5, 10 and 30 minutes", "protocol": "Western Blotting. Cells were lysed with RIPA buffer containing EGTA and EDTA (Boston BioProducts, Ashland, Mass.). The lysis buffer was mixed with a protease inhibitor cocktail (Sigma-Aldrich). Protein concentrations were measured using the bicinchoninic acid reagent (Thermo-Pierce Biotechnology, Inc., Rockford, Ill.). […] Western blots were performed according to standard methods. The visualization of immunoreactive bands was performed using the ECL Plus Western Blotting Detection System (GE Healthcare, NJ) and their quantification was done by volume densitometry using Image J software and normalization to β-actin. […] The antibodies were used at a dilution recommended by the manufacturer."}}, "data": [{"smiles": "C[C@H](Cc1ccc(N)cc1)NC[C@H](O)c1cc(O)cc(O)c1", "note": "[(R,R′)-aminoFen, (R,R′)-4′-aminofenoterol]", "values": [{"measurement": "% Change in HepG2 cells ([3H]-thymidine incorporation)", "setting": "HepG2 cells [1]; 24 h", "value": "(R,R′): 54.37%"}, {"measurement": "fold more active than (R,R′)-Fen", "setting": "HepG2 cells [1]; [3H]-thymidine incorporation, HepG2", "value": 3, "unit": "fold"}, {"measurement": "effect on proliferation / [3H]-thymidine incorporation", "setting": "1321N1 cells", "value": "markedly lower"}]}, {"smiles": "COc1ccc(C[C@H](C)NC[C@H](O)c2cc(O)cc(O)c2)c2ccccc12", "note": "[(R,S′)-MNF, 4-methoxy-1-naphthylfenoterol]", "values": [{"measurement": "% Change in HepG2 cells ([3H]-thymidine incorporation)", "setting": "HepG2 cells [1]; 24 h", "value": "−68.1", "unit": "%"}]}, {"smiles": "C[C@H](Cc1cccc2ccccc12)NC[C@H](O)c1cc(O)cc(O)c1", "note": "[(R,R′)-1-naphthylFen, (R,R′)-1-naphthylfenoterol]", "values": [{"measurement": "% Change in HepG2 cells ([3H]-thymidine incorporation)", "setting": "HepG2 cells [1]; 24 h", "value": "(R,R): −67.52%"}, {"measurement": "IC50", "setting": "HepG2 cells [1]; Homo sapiens, HepG2, read-out: IC50/EC50 (μM): IC50 for inhibition of [3H]-thymidine incorporation", "value": "0.21 ± 0.07", "unit": "µM"}]}, {"smiles": "Cc1c(C(=O)NN2CCCCC2)nn(-c2ccc(Cl)cc2Cl)c1-c1ccc(I)cc1", "note": "[AM251, 1-(2,4-dichlorophenyl)-5-(4-iodophenyl)-4-methyl-N-(1-piperidyl)pyrazole-3-carboxamide, reference compound]", "values": [{"measurement": "effect of pretreatment on (R,R′)-Fen-stimulated mitogenesis", "setting": "HepG2 cells [1]; HepG2 cells", "value": "had no impact on the mitogenic responses of (R,R′)-Fen"}, {"measurement": "effect of pretreatment on anti-proliferative effect of (R,R′)-MNF", "setting": "HepG2 cells [1]; HepG2 cells", "value": "completely inhibited the anti-proliferative effects of (R,R′)-MNF"}, {"measurement": "effect of pretreatment on anti-proliferative action of (R,R′)-MNF", "setting": "U87MG cells", "value": "partially blocked"}, {"measurement": "effect of preincubation on antiproliferative effect of MNF", "setting": "rat C6 glioma cells", "value": "rendered C6 cells refractory to the growth-inhibitory effect of MNF"}]}, {"smiles": "C[C@@H](Cc1ccc(O)cc1)NC[C@H](O)c1cc(O)cc(O)c1", "note": "[(R,S′)-Fen, fenoterol]", "values": [{"measurement": "% Change in HepG2 cells ([3H]-thymidine incorporation)", "setting": "HepG2 cells [1]; 24 h", "value": 19.1, "unit": "%"}]}, {"smiles": "CN(C)c1ccc2c(-c3ccc(C(=O)NCCCc4ccccc4)cc3C(=O)[O-])c3ccc(N(C)C)cc3[o+]c2c1", "note": "[TAMRA-PPA, 5′-TAMRA-3-phenylpropan-1-amine]", "values": [{"measurement": "cellular incorporation of fluorescence", "setting": "GPR55; HepG2 cells, up to 1 hour", "value": "no significant incorporation of fluorescence"}]}, {"smiles": "CCCCCCC(C)(C)c1ccc([C@@H]2C[C@H](O)CC[C@H]2CCCO)c(O)c1", "note": "[CP 55,940]", "values": [{"measurement": "reduction of T1117 uptake", "setting": "GPR55; HepG2, 0.25 μM, 30-minutes pretreatment", "value": 2.5, "unit": "fold"}]}, {"smiles": "COc1ccc(C(=O)c2c(C)n(CCN3CCOCC3)c3cc(I)ccc23)cc1", "note": "[AM630, 1-[2-(morpholin-4-yl)ethyl]-2-methyl-3-(4-methoxybenzoyl)-6-iodoindole]", "values": [{"measurement": "effect of pretreatment on (R,R′)-Fen-stimulated mitogenesis", "setting": "HepG2 cells [1]; HepG2 cells", "value": "had no impact on the mitogenic responses of (R,R′)-Fen"}, {"measurement": "effect of pretreatment on anti-proliferative effect of (R,R′)-MNF", "setting": "HepG2 cells [1]; HepG2 cells", "value": "completely inhibited the anti-proliferative effects of (R,R′)-MNF"}, {"measurement": "effect of pretreatment on anti-proliferative action of (R,R′)-MNF", "setting": "U87MG cells", "value": "partially blocked"}, {"measurement": "effect of preincubation on antiproliferative effect of MNF", "setting": "rat C6 glioma cells", "value": "had minimal effect against MNF signaling"}, {"measurement": "effect of pretreatment on T1117 incorporation", "setting": "GPR55", "value": "largely inactive"}]}, {"smiles": "Cc1c(C(=O)NN2CCCCC2)nn(-c2ccc(Cl)cc2Cl)c1-c1ccc(-c2ccc(CCCNC(=O)c3ccc4c(c3)C(=O)OC43c4ccc(N(C)C)cc4Oc4cc(N(C)C)ccc43)cc2)cc1", "note": "[T1117]", "values": [{"measurement": "time of half-maximum incorporation of T1117", "setting": "GPR55; HepG2 cells transfected with control siRNA", "value": "~15", "unit": "min"}, {"measurement": "EC50", "setting": "GPR55; serum-depleted cells, 37° C., 2.5-100 nM, read-out: T1117 concentration of half-maximal cellular incorporation", "value": "~8", "unit": "nM"}]}, {"smiles": "Cc1c(C(=O)c2cccc3ccccc23)c2cccc3c2n1[C@H](CN1CCOCC1)CO3", "note": "[WIN 55,212-2, reference compound]", "values": [{"measurement": "effect of pretreatment on (R,R′)-Fen-stimulated mitogenesis", "setting": "HepG2 cells [1]; HepG2 cells", "value": "canceled out the growth-promoting action of fenoterol"}, {"measurement": "effect on cell proliferation", "setting": "HepG2 cells [1]; HepG2 cells", "value": "reduced cell proliferation"}, {"measurement": "effect of pretreatment on T1117 incorporation", "setting": "GPR55", "value": "markedly increased the rate of T1117 accumulation"}]}, {"smiles": "C[C@H](Cc1ccc(O)cc1)NC[C@@H](O)c1cc(O)cc(O)c1", "note": "[(S,R′)-Fen, fenoterol]", "values": [{"measurement": "% Change in HepG2 cells ([3H]-thymidine incorporation)", "setting": "HepG2 cells [1]; 24 h", "value": 28.7, "unit": "%"}]}, {"smiles": "Cc1ccc(OCC(O)C(C)NC(C)C)c2c1CCC2", "note": "(stereo not drawn) [ICI 118,551, 3-(isopropylamino)-1-[(7-methyl-4-indanyl)oxy]butan-2-ol, reference compound]", "values": [{"measurement": "effect of pretreatment on (R,R′)-Fen-stimulated mitogenesis", "setting": "HepG2 cells [1]; HepG2 cells", "value": "significantly blocked (R,R′)-Fen-stimulated mitogenesis"}, {"measurement": "effect of pretreatment on anti-proliferative effect of (R,R′)-MNF", "setting": "HepG2 cells [1]; HepG2 cells", "value": "refractory to ICI 118,551 pretreatment"}, {"measurement": "effect on cell proliferation", "setting": "HepG2 cells [1]; HepG2 cells", "value": "showed no effect on cell proliferation"}, {"measurement": "effect of pretreatment on anti-proliferative action of (R,R′)-MNF", "setting": "U87MG cells", "value": "inactive against the anti-proliferative action of (R,R′)-MNF in U87MG cells"}, {"measurement": "effect of preincubation on antiproliferative effect of MNF", "setting": "rat C6 glioma cells", "value": "did not block the antiproliferative effect of MNF"}, {"measurement": "effect of pretreatment on (R,R′)-Fen signaling", "setting": "1321N1 cells", "value": "blocked (R,R′)-Fen signaling in 1321N1 cells"}]}, {"smiles": "CC(C)NC[C@H](O)c1ccc(O)c(O)c1", "note": "[(R)-isoproterenol, reference compound]", "values": [{"measurement": "cAMP production", "setting": "HepG2 cells [2]", "value": "Neither (R)-isoproterenol nor (R,R′)-Fen, at 10 μM, elicited an increase in cAMP production"}, {"measurement": "Akt and ERK activation", "setting": "Akt and ERK1/2", "value": "induced a time-dependent increase in Akt and ERK activation"}, {"measurement": "EC50", "setting": "HepG2 cells [1]; Homo sapiens, HepG2 cells, serum-free medium, 24 h, read-out: IC50/EC50 (μM): EC50 (ED50) for increase in [3H]-thymidine incorporation", "value": "0.4 ± 0.08", "unit": "µM"}, {"measurement": "effect on cellular proliferation", "setting": "U87MG cells; compound alone", "value": "had no effect on U87MG cells"}, {"measurement": "inhibition at 0.02 µM", "setting": "rat C6 glioma cells; Rattus norvegicus, 20 nM, 24 hours, read-out: inhibition of C6 cell growth / reduction in mitogenesis", "value": "10 to 15", "unit": "%"}, {"measurement": "effect on proliferation / [3H]-thymidine incorporation", "setting": "1321N1 cells", "value": "reduced proliferation in 1321N1 cells"}]}]}
